Data as given in patent US20230416239A1, “COMPOUNDS AND METHODS FOR TREATING A CYTOKINE-MEDIATED DISEASE” (CONSERVATOIRE NATIONAL DES ARTS ET MÉTIERS, priority 2020, published 2023).

Legend:
TNFa/TNFRI interaction = TNFa/TNFRI interaction (Homo sapiens, UniProt P01375); experiment: TNFa/TNFRI interaction displacement test; format: binding; conditions: for Displacement (%): compounds at 50 μM, human TNFRI 100 ng/ml;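 for Displacement EC50 TNFa in presence of compound: Difference: SPD304 reference at 20 µM final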
TNFa/TNFRI interaction, sequence (P01375 77-233 limits assumed): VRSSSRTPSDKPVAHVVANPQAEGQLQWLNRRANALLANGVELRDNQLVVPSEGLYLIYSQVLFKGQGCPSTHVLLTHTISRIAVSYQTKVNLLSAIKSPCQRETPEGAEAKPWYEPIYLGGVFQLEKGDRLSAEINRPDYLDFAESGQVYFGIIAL
Description: Microtiter plates (96 wells) are covered with 100 μl per well of human TNFRI, at a concentration of 100 ng/ml, then incubated overnight at 4° C. The following day, after two washes in PBS/Tween20, the plates are saturated with 150 μl of PBS/BSA 2% for 2 h at 37° C.
100 μl of each mixture are then transferred to the microtiter plate, respecting the established plate plan and incubated overnight at 4° C.
After three washes, 100 μl of biotinylated anti-cytokine secondary antibody are added to each well and incubated for 2 h at 37° C. After three washes, 100 Avl Avidin-HRP (dilution 1/500th) are added and incubated for 30 minutes at 37° C. […] The plates are then read with a spectrophotometer at 450 nm, measuring the optical density (OD) for each well.

TNFα = TNFα (Homo sapiens, UniProt P01375); experiment: Immunoassay binding test, TNFa; conditions: compounds 100 to 0.78 μM; TNFα 10 ng/ml, receptor 100 ng/ml; read-out: BINDING TNF IC50
TNFα, sequence (P01375 77-233 limits assumed, species assumed): as the sequence (P01375 77-233 limits assumed) above
Description: Microtiter plates (96 wells) are covered with 100 μl of receptor per well, and incubated overnight at 4° C. The following day, after 2 washes in PBS/Tween20, the plates are saturated with 150 μl of PBS/BSA 2% per well, for 2 h at 37° C. […] The cytokine is diluted in series (six concentrations) in a final volume of 120 μl per well. […] The different mixtures are incubated for 2 h at 37° C. 100 μl of each mixture are then transferred to the microtiter plate, respecting the plate plan previously defined and incubated overnight at 4° C. After three washes, 100 μl of biotinylated anti-cytokine secondary antibody are added to each well, then incubated for 2 h at 37° C. After three washes, 100 μl of Avidin-HRP (1/500th dilution) are added and incubated for 30 minutes at 37° C. […] The plates are then read with a spectrophotometer at 450 nm, measuring the optical density for each well.
(§1) This binding test is carried out with different cytokines: TNFa, IL-4, IL-6 and IL-13. For IL-6, the incubation of molecules with the cytokine also requires the presence of IL-6Ra at a final concentration of 200 ng/ml.
(§2) The final concentrations used for each of the cytokines are presented below: […]

IL-6 = IL-6 (Homo sapiens, UniProt P05231); experiment: Immunoassay binding test, IL-6 (gp130 receptor, IL-6Ra present); conditions: IL-6Ra 200 ng/ml
IL-6, sequence (P05231 30-212, species assumed): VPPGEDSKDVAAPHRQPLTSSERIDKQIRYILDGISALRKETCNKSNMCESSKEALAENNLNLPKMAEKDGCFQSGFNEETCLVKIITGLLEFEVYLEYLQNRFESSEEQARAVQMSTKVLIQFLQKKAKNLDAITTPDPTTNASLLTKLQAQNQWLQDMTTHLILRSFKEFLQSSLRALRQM
Description: (§3) Microtiter plates (96 wells) are covered with 100 μl of receptor per well, and incubated overnight at 4° C. The following day, after 2 washes in PBS/Tween20, the plates are saturated with 150 μl of PBS/BSA 2% per well, for 2 h at 37° C. Synthetic compounds are diluted in series (final concentrations: 100 to 0.78 μM) then a fixed amount of cytokine in PBS/BSA 1% is added to the compounds, in a final volume of 120 μl per well. […] The cytokine is diluted in series (six concentrations) in a final volume of 120 μl per well. The cytokine is used in the absence of small molecule as well as the range of SPD304 as positive controls and the absence of cytokine and synthetic molecule as negative control. The different mixtures are incubated for 2 h at 37° C. 100 μl of each mixture are then transferred to the microtiter plate, respecting the plate plan previously defined and incubated overnight at 4° C. After three washes, 100 μl of biotinylated anti-cytokine secondary antibody are added to each well, then incubated for 2 h at 37° C. After three washes, 100 μl of Avidin-HRP (1/500th dilution) are added and incubated for 30 minutes at 37° C. […] The plates are then read with a spectrophotometer at 450 nm, measuring the optical density for each well.
as §1, §2

IL-13 = IL-13 (Homo sapiens, UniProt P35225); experiment: Immunoassay binding test, IL-13; conditions: for IC50: IL-13 400 ng/ml, receptor 100 ng/ml, read-out: BINDING IL13 IC50
IL-13, sequence (P35225 25-146, species assumed): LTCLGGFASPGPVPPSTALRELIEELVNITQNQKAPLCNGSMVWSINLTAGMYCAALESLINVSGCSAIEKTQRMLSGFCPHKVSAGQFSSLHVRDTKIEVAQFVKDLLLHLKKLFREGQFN
Description: Microtiter plates (96 wells) are covered with 100 μl of receptor per well, and incubated overnight at 4° C. The following day, after 2 washes in PBS/Tween20, the plates are saturated with 150 μl of PBS/BSA 2% per well, for 2 h at 37° C. Synthetic compounds are diluted in series (final concentrations: 100 to 0.78 μM) then a fixed amount of cytokine in PBS/BSA 1% is added to the compounds, in a final volume of 120 μl per well. […] The cytokine is diluted in series (six concentrations) in a final volume of 120 μl per well. […] The different mixtures are incubated for 2 h at 37° C. 100 μl of each mixture are then transferred to the microtiter plate, respecting the plate plan previously defined and incubated overnight at 4° C. After three washes, 100 μl of biotinylated anti-cytokine secondary antibody are added to each well, then incubated for 2 h at 37° C. After three washes, 100 μl of Avidin-HRP (1/500th dilution) are added and incubated for 30 minutes at 37° C. […] The plates are then read with a spectrophotometer at 450 nm, measuring the optical density for each well.
as §1, §2

IL-4 = molecular target: T1, IL-4 (Homo sapiens, UniProt P05112); experiment: Immunoassay binding test, IL-4; conditions: for IC50: IL-4 400 ng/ml, receptor 100 ng/ml, read-out: BINDING IL4 IC50
T1 sequence (P05112 25-153): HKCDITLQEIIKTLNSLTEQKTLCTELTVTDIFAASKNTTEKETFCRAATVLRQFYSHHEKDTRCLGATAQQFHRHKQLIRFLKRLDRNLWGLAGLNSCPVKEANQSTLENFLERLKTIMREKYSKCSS
Description: as §3, §1, §2

| SMILES | Displacement (%) (TNFa/TNFRI interaction) | IC50 (TNFα) | BINDING IL6 % Neutra at 100 μM (IL-6) | BINDING IL13 % Neutra at 100 μM (IL-13) | IC50 (IL-13) | BINDING IL4 % Neutra at 100 μM (IL-4) | IC50 (IL-4) | Displacement EC50 TNFa in presence of compound: Difference (TNFa/TNFRI interaction; Compound EC50 minus SPD304 EC50) |
| --- | --- | --- | --- | --- | --- | --- | --- | --- |
| O=S(=O)(c1ccccc1)n1cc(CN(CCNC2CCCCC2)Cc2cccnc2)c2ccccc21 [Compound 25] | 99% | 22.6 µM | −15.3% | 61.2% | > 50 µM | 94.6% | 7.8 µM |  |
| O=S(=O)(c1ccccc1)n1cc(CN(CCNC2CCCCC2)Cc2ccncc2)c2ccccc21 [Compound 26] | 107% | 14.1 µM | −17.2% | 66% | > 50 µM | 95.5% | 8.4 µM |  |
| CN(CCN(Cc1cccnc1)Cc1cn(S(=O)(=O)c2ccccc2)c2ccccc12)C1CCCCC1 [Compound 27] | 121% | 13.8 µM | −12% | 53.9% | > 50 µM | 96.3% | 7.8 µM |  |
| CN(CCN(Cc1ccncc1)Cc1cn(S(=O)(=O)c2ccccc2)c2ccccc12)C1CCCCC1 [Compound 28] | 125% | 14.5 µM | 12.4% | 38.3% | > 50 µM | 96.6% | 8.1 µM |  |
| FC(F)(F)c1cccc(-n2cc(CN(CCNC3CCCCC3)Cc3ccncc3)c3ccccc32)c1 [Compound 29] | 103% | 18.3 µM | 17.3% | 86.8% | > 50 µM | 96.4% | 6.2 µM |  |
| FC(F)(F)c1cccc(-n2cc(CN(CCNC3CCCCC3)Cc3cccnc3)c3ccccc32)c1 [Compound 30] | 106% | 19.9 µM | 16.8% | 93.6% | > 50 µM | 97.3% | 4 µM |  |
| CN(CCN(Cc1ccncc1)Cc1cn(-c2cccc(C(F)(F)F)c2)c2ccccc12)C1CCCCC1 [Compound 31] | 120% | 13.4 µM | 1.7% | 81% | > 50 µM | 96% | 5.7 µM |  |
| CN(CCN(Cc1cccnc1)Cc1cn(-c2cccc(C(F)(F)F)c2)c2ccccc12)C1CCCCC1 [Compound 32] | 125% | 15.9 µM | 15.5% | 76.3% | > 50 µM | 97.7% | 3.9 µM |  |
| O=S(=O)(c1ccccc1)n1cc(CN(CCCCCNC2CCCCC2)Cc2cccnc2)c2ccccc21 [Compound 34] | 256% | 7.2 µM | −4.8% | 97.9% | > 50 µM | 95.4% | 5.9 µM | 9.9 ng/mL |
| CN(CCCCCN(Cc1ccncc1)Cc1cn(S(=O)(=O)c2ccccc2)c2ccccc12)C1CCCCC1 [Compound 35] | 181% | 4.6 µM | −21.5% | 97.1% | > 50 µM | 96.1% | 5.6 µM |  |
| CN(CCCCCN(Cc1cccnc1)Cc1cn(S(=O)(=O)c2ccccc2)c2ccccc12)C1CCCCC1 [Compound 36] | 165% | 3.9 µM | −1.8% | 95% | 19.8 µM | 97.4% | 3.4 µM |  |
| FC(F)(F)c1cccc(-n2cc(CN(CCCCCNC3CCCCC3)Cc3ccncc3)c3ccccc32)c1 [Compound 37] | 123% | 19.1 µM | 20.4% | 96.4% | 7.4 µM | 96.3% | 4 µM |  |
